Measurements from patent publication US9839642B2, “Beta-tetrazolyl-propionic acids as metallo-beta-lactamase inhibitors” (priority 2014, dated 2017).
Read-outs that look alike come from different tables or passages of the source.

Experiments:
IMP-1 = IMP-1 (Serratia marcescens, UniProt P52699); assay: Enzyme activity: determination of IC50, fluorescence assay with CCF2-FA substrate; assay type: biochemical; conditions: CCF2-FA 1.25 μM, 2 hours at 25° C., read-out: IMP1 IC50
Outline: (§1)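 Enzyme at 1 pM (NDM-1), 2 pM (IMP-1) or 30 pM (VIM-1) was incubated with inhibitor (20 μM to 0.00063 μM) and 1.25 μM CCF2-FA in 100 mM KH2PO4 pH 7, 0.005% Tween-20, 10 μM ZnSO4 for 2 hours at 25° C. Fluorescence was read at ex 405/em 460 nm; IC50 from 4-parameter fit.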

NDM-1 = NDM-1 (Klebsiella pneumoniae, UniProt C7C422); assay: as above; assay type: biochemical; conditions: CCF2-FA 1.25 μM, 2 hours at 25° C., read-out: NDM1 IC50
Outline: as §1

VIM-1 = VIM-1 (Pseudomonas aeruginosa, UniProt A0A0F7KYQ8); assay: as above; assay type: biochemical; conditions: CCF2-FA 1.25 μM, 2 hours at 25° C., read-out: VIM1 IC50
Outline: as §1

[1] = system: Escherichia coli expressing NDM-1 (CLB30016); assay: Antibiotic potentiation activity: synergistic concentration (MITC95) with imipenem, growth by OD600; assay type: cell-based
Outline: (§2)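 Colonies from overnight agar plates (35 °C) were suspended in saline and diluted 1:100 into 1.1× CAMHB. Inhibitor (final 200 μM to 0.195 μM) was combined with imipenem at 1 or 4 μg/ml, incubated 22–24 h at 35 °C, and absorbance read; MITC95 is the lowest inhibitor concentration giving 95% growth inhibition.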

[2] = system: Klebsiella pneumoniae expressing VIM-1 (IHMA599644); assay: as above; assay type: cell-based
Outline: as §2

[3] = system: Serratia marcescens expressing IMP-1 (CL5741); assay: as above; assay type: cell-based
Outline: as §2

[4] = E. coli CLB30016 (NDM-1), 95% inhibition of growth
[5] = K. pneumoniae IHMA599644 (VIM-1), 95% inhibition of growth
[6] = S. marcescens CL5741 (IMP-1), 95% inhibition of growth
[7] = 95% inhibition of bacterial growth, strain CLB30016
[8] = 95% inhibition of bacterial growth, strain IHMA599644
[9] = 95% inhibition of bacterial growth, strain CL5741

IMP-1, sequence (P52699 19-246, looked up, species assumed): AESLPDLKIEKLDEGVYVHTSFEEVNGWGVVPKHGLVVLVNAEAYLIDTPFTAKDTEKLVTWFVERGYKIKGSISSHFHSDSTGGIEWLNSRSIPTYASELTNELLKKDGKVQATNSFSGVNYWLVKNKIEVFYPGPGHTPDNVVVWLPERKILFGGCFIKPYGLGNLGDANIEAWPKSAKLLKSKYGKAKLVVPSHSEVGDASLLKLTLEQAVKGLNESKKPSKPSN
NDM-1, sequence (C7C422 29-270, looked up, species assumed): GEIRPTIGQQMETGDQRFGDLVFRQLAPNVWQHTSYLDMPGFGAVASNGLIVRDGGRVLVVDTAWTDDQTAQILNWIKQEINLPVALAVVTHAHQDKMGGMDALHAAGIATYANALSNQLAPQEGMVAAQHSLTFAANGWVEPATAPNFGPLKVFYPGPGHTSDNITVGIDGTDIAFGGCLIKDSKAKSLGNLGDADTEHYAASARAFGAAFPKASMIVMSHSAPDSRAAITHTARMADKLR

Row | SMILES | IC50 (IMP-1; IMP-1 enzyme 2 pM) | IC50 (NDM-1; NDM-1 enzyme 1 pM) | IC50 (VIM-1; VIM-1 enzyme 30 pM) | NDM1 EC30016 MITC95 [1, 4] | VIM1 KP599644 MITC95 [2, 5] | IMP1 SM5741 MITC95 [3, 6] | IC50 (IMP-1; enzyme 2 pM) | IC50 (NDM-1; enzyme 1 pM) | IC50 (VIM-1; enzyme 30 pM) | NDM1 EC30016 MITC95 [1, 7] | VIM1 KP599644 MITC95 [2, 8] | IMP1 SM5741 MITC95 [3, 9]
1 | CC(C)C[C@H](C(=O)O)[C@H](Cc1ccc(Oc2ccc(CC(C)(C)N)cc2)nc1)c1nn[nH]n1 [Example 386, (2S)-2-[(1S)-2-{6-[4-(2-amino-2-methylpropyl)phenoxy]pyridin-3-yl}-1-(2H-tetrazol-5-yl)ethyl]-4-methylpentanoic acid] | 0.18 µM | 0.12 µM | 0.1 µM | 25 µM | >200 µM | 12.5 µM |  |  |  |  |  | 
2 | CCC[C@H](C(=O)O)[C@H](Cc1ccc(C(=O)NC2CC2)cc1)c1nnn[nH]1 [Example 281, (2S)-2-[(1S)-2-[4-(cyclopropylcarbamoyl)phenyl]-1-(1H-tetrazol-5-yl)ethyl]pentanoic acid] | 5.3 µM | 0.77 µM | 0.086 µM | 100 µM | 200 µM | 200 µM |  |  |  |  |  | 
3 | CCC[C@H](C(=O)O)C(Cc1ccccc1C(F)(F)F)c1nnn[nH]1 (stereo in doubt) [Example 268, (2S)-2-{(1S)-1-(1H-tetrazol-5-yl)-2-[2-(trifluoromethyl)phenyl]ethyl}pentanoic acid] | 2.7 µM | 0.0064 µM | 0.0032 µM | 7.8 µM | 12.5 µM | 75 µM |  |  |  |  |  | 
4 | CCC[C@H](C(=O)O)[C@H](Cc1cccc(-c2cncc3ccccc23)c1)c1nn[nH]n1 [Example 352, (2S)-2-[(1S)-2-(3-isoquinolin-4-ylphenyl)-1-(2H-tetrazol-5-yl)ethyl]pentanoic acid] | 0.0078 µM | 0.0017 µM | 0.0017 µM | 18.8 µM | 50 µM | 0.39 µM |  |  |  |  |  | 
5 | CCC[C@H](C(=O)O)[C@H](Cc1ccc(N2CCC[C@H](N)C2)cc1)c1nn[nH]n1 [Example 230, (2S)-2-[(1S)-2-{4-[(3S)-3-aminopiperidin-1-yl]phenyl}-1-(2H-tetrazol-5-yl)ethyl]pentanoic acid] |  |  |  |  |  |  | 1.1 µM | 0.3 µM | 0.025 µM | 31 µM | 25 µM | 25 µM
6 | CCC[C@H](C(=O)O)[C@H](Cc1ccc(C(=O)N(C)C)cc1)c1nnn[nH]1 [Example 277, (2S)-2-[(1S)-2-[4-(dimethylcarbamoyl)phenyl]-1-(1H-tetrazol-5-yl)ethyl]pentanoic acid] | 0.13 µM | 0.01 µM | 0.013 µM | 25 µM | 75 µM | 12.5 µM |  |  |  |  |  | 
7 | CCC[C@H](C(=O)O)[C@H](Cc1ccc(-c2ccc(C3(O)CNC3)cc2)nc1)c1nnn[nH]1 [Example 159, (2S)-2-[(1S)-2-{6-[4-(3-hydroxyazetidin-3-yl)phenyl]pyridin-3-yl}-1-(1H-tetrazol-5-yl)ethyl]pentanoic acid] |  |  |  |  |  |  | 3.7 µM | 0.4 µM | 0.023 µM | 12.5 µM | 50 µM | 75 µM
8 | CC(C)C[C@H](C(=O)O)[C@H](Cc1ccc(N2CCC(CO)CC2)nc1)c1nnn[nH]1 [Example 314, (2S)-2-[(1S)-2-{6-[4-(hydroxymethyl)piperidin-1-yl]pyridin-3-yl}-1-(1H-tetrazol-5-yl)ethyl]-4-methylpentanoic acid] | 0.19 µM | 0.049 µM | 0.016 µM | 6.2 µM | 75 µM | 12.5 µM |  |  |  |  |  | 
9 | CCC[C@H](C(=O)O)[C@H](Cc1ccc(C)nc1)c1nnn[nH]1 [Example 85, (2S)-2-[(1S)-2-(6-methylpyridin-3-yl)-1-(1H-tetrazol-5-yl)ethyl]pentanoic acid] |  |  |  |  |  |  | 6.5 µM | 0.25 µM | 0.0062 µM | 0.78 µM | 18.8 µM | 100 µM
10 | CC(C)CC(C(=O)O)[C@H](Cc1ccc(S(C)(=O)=O)cc1)c1nn[nH]n1 (stereo partly drawn) [Example 51, CAN-4-methyl-2-((S)-2-(4-(methylsulfonyl)phenyl)-1-(2H-tetrazol-5-yl)ethyl)pentanoic acid] |  |  |  |  |  |  | 0.54 µM | 0.18 µM | 0.025 µM | 75 µM | 150 µM | 25 µM
11 | CC(C)[C@H](C(=O)O)[C@H](Cc1cccc(NCCO)n1)c1nnn[nH]1 [Example 138, (2S,3S)-4-(6-((2-hydroxyethyl)amino)pyridin-2-yl)-2-isopropyl-3-(1H-tetrazol-5-yl)butanoic acid] |  |  |  |  |  |  | > 20 µM | 0.49 µM | 0.67 µM | 3.1 µM | 75 µM | >200 µM
12 | CC(C)(C)[C@H](C(=O)O)[C@H](Cc1ccc(NCCN)nc1)c1nnn[nH]1.O=C(O)C(F)(F)F [Example 427, 2-((5-((2S,3R)-3-carboxy-4,4-dimethyl-2-(1H-tetrazol-5-yl)pentyl)pyridin-2-yl)amino)ethan-1-aminium 2,2,2-trifluoroacetate] | 0.342 µM | 0.119 µM | 0.0179 µM | 1.563 µM | 9.375 µM | 3.125 µM |  |  |  |  |  | 
13 | CC(C)(C)[C@H](C(=O)O)[C@H](Cc1ccc(NC(=N)N)nc1)c1nnn[nH]1 [Example 422, (2R,3S)-2-(tert-butyl)-4-(6-guanidinopyridin-3-yl)-3-(1H-tetrazol-5-yl)butanoic acid] | 0.104 µM | 0.228 µM | 0.00401 µM | 12.5 µM | 6.25 µM | 25 µM |  |  |  |  |  | 
14 | CC(C)[C@H](C(=O)O)[C@H](Cc1ccc(-c2ccc(CN)cc2)cc1)c1nnn[nH]1 [Example 74, (2S,3S)-4-(4′-(aminomethyl)-[1,1′-biphenyl]-4-yl)-2-isopropyl-3-(1H-tetrazol-5-yl)butanoic acid] |  |  |  |  |  |  | 0.11 µM | 0.034 µM | 0.018 µM | 3.1 µM | 12.5 µM | 1.6 µM
15 | CCC[C@H](C(=O)[O-])[C@H](Cc1ccc(C2CC[N+](C)(C)CC2)nc1)c1nnn[nH]1 [Example 291, (S)-2-((S)-2-(6-(1,1-dimethylpiperidin-1-ium-4-yl)pyridin-3-yl)-1-(1H-tetrazol-5-yl)ethyl)pentanoate] | 6.5 µM | 0.65 µM | 0.12 µM | 3.1 µM | 38 µM | 50 µM |  |  |  |  |  | 
16 | CCC[C@H](C(=O)O)[C@H](Cc1cccc(-c2cccc(CN)c2)c1)c1nn[nH]n1 [Example 359, (2S)-2-[(1S)-2-[3′-(aminomethyl)biphen-yl-3-yl]-1-(2H-tetrazol-5-yl)ethyl]pentanoic acid] | 0.75 µM | 0.06 µM | 0.0025 µM | 9.4 µM | 6.2 µM | 12.5 µM |  |  |  |  |  | 
17 | CC(C)C[C@H](C(=O)O)[C@H](Cc1ccc(C#N)cc1)c1nnn[nH]1 [Example 42] |  |  |  |  |  |  | 0.19 µM | 0.074 µM | 0.0014 µM | 18.8 µM | 37.5 µM | 12.5 µM
18 | CCC[C@H](C(=O)O)[C@H](Cc1ccc(N)cn1)c1nnn[nH]1 [Example 111, (S)-2-((S)-2-(5-aminopyridin-2-yl)-1-(1H-tetrazol-5-yl)ethyl)pentanoic acid] |  |  |  |  |  |  | 7.7 µM | 0.23 µM | 0.077 µM | 0.49 µM | 5.5 µM | 44 µM
19 | CCC[C@H](C(=O)O)[C@H](Cc1cccc(-c2ccccc2CN2CCCCC2)c1)c1nn[nH]n1 [Example 357, (2S)-2-[(1S)-2-[2′-(piperidin-1-ylmethyl)biphenyl-3-yl]-1-(2H-tetrazol-5-yl)ethyl]pentanoic acid] | 2.1 µM | 0.17 µM | 0.063 µM | 150 µM | 150 µM | 38 µM |  |  |  |  |  | 
20 | CCC[C@H](C(=O)O)[C@H](Cc1ccccc1-c1ccc(CO)cc1)c1nn[nH]n1 [Example 403, (2S)-2-[(1S)-2-[4′-(hydroxymethyl)biphen-yl-2-yl]-1-(2H-tetrazol-5-yl)ethyl]pentanoic acid] | 0.55 µM | 0.0024 µM | 0.0033 µM | 9.4 µM | 50 µM | 18.8 µM |  |  |  |  |  | 
